Test results published in US20070135399A1, “Heteroaromatic sulphonamide prodrugs” (priority 2005, published 2007).
Where two headings read alike, the source gives them in different places.

Experiments:
[1] = biological target: human carboanhydrase II (Homo sapiens, UniProt P00918); assay: Carboanhydrase inhibition, photometric, nitrophenyl acetate conversion (CA II); format: biochemical
Excerpt: (§1) a) Carboanhydrase Inhibition
(§2) Photometric determination of the inhibition of human carboanhydrase I or II by sulphonamides or sulphamates on microtitre plates with the aid of the enzymatic conversion of nitrophenyl acetate with a colour change from colourless to yellow.

[2] = biological target: human carboanhydrase I (Homo sapiens, UniProt P00915); assay: Carboanhydrase inhibition, photometric, nitrophenyl acetate conversion (CA I); format: biochemical
Sequence of human carboanhydrase I (P00915 whole entry): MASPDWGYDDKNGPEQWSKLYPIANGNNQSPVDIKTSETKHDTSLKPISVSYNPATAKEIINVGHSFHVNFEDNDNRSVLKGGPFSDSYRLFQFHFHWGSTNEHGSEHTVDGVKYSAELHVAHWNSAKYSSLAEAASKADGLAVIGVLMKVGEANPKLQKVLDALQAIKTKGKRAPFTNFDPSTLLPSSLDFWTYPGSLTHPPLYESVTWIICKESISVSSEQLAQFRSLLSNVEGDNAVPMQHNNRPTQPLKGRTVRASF
Excerpt: as §1, §2

[3] = Blood-plasma concentration ratio in heparinized rat blood
Method: b) Blood-plasma concentration ratio—test principle and experimental description:
The blood-plasma ratio is calculated from the measured concentration and the theoretical concentration.

[4] = human carboanhydrase II, read-out: CA II IC50
[5] = human carboanhydrase I, read-out: CA I IC50
[6] = freshly obtained heparinized whole blood

Row | Compound | IC50 [1, 4] [µM] | IC50 [2, 5] [µM] | blood plasma ratio [3, 6] | blood plasma ratio [3] | IC50 [1] [µM] | IC50 [2] [µM] | Blood/plasma ratio
1 | C[C@]12CC[C@@H]3c4ccc(O)cc4CC[C@H]3[C@@H]1CC[C@@H]2OC(=O)c1ccc(S(N)(=O)=O)nc1 [Compound 1, 3-Hydroxyoestra-1,3,5(10)-trien-17β-yl 6′-sulphamoylnicotinate] | 0.031 | 2.9 |  |  |  |  | 
2 | C[C@]12CC[C@@H]3c4ccc(O)cc4CC[C@H]3[C@@H]1CC[C@@H]2OC(=O)c1cncc(S(N)(=O)=O)c1 [Compound 2, 3-Hydroxyoestra-1,3,5(10)-trien-17β-yl 5′-sulphamoylnicotinate] | 0.16 | 2.1 | 2 |  |  |  | 
3 | CCc1sc(S(N)(=O)=O)cc1C(=O)O[C@H]1CC[C@H]2[C@@H]3CCc4cc(O)ccc4[C@H]3CC[C@]12C [Compound 3, 3-Hydroxyoestra-1,3,5(10)-trien-17β-yl 2′-ethyl-5′-sulphamoylthiophene-3′-carboxylate] | 0.042 | 3.4 | 1.8 |  |  |  | 
4 | C[C@]12CC[C@@H]3c4ccc(O)cc4CC[C@H]3[C@@H]1CC[C@@H]2OC(=O)c1cc(S(N)(=O)=O)sc1Br [Compound 4, 3-Hydroxyoestra-1,3,5(10)-trien-17β-yl 2′-bromo-5′-sulphamoylthiophene-3′-carboxylate] | 0.047 | 3.3 | 9.5 |  |  |  | 
5 | C[C@]12CC[C@H]3[C@@H](CCC4=CC(=O)CC[C@@]43C)[C@@H]1CC[C@@H]2OC(=O)c1ccc(S(N)(=O)=O)nc1 [Compound 5, 3-Oxoandrost-4-en-17β-yl 6′-sulphamoylnicotinate] |  |  |  | 3.6 | 0.041 | 3.2 | 
6 | C[C@]12CC[C@H]3[C@@H](CCC4=CC(=O)CC[C@@]43C)[C@@H]1CC[C@@H]2OC(=O)c1cncc(S(N)(=O)=O)c1 [Compound 6, 3-Oxoandrost-4-en-17β-yl 5′-sulphamoylnicotinate] |  |  |  | 5.7 | 0.25 | 2.9 | 
7 | C[C@]12CC[C@@H]3c4ccc(OS(N)(=O)=O)cc4CC[C@H]3[C@@H]1CC[C@@H]2O [Oestradiol 3-sulphamate, reference compound] | 0.034 | 0.157 ± 0.0106 |  |  |  |  | About 50
